ChEMBL document CHEMBL1133253, “Improved antibacterial activities of coumarin antibiotics bearing 5',5'-dialkylnoviose: biological activity of RU79115” (Bioorg Med Chem Lett, 2000)
≈ marks a conversion by molar mass, not a printed value.

Experiments:
Enterococcus faecium = assay: Tested for in vitro antibacterial activity against Enterococcus faecium 02D31P2 vancomycin teicoplanin erythromycin resistance phenotype; assay type: functional
Staphylococcus aureus [1] = assay: IC50 was determined for gyrase B of Staphylococcus aureus against novobiocin (0.5 mg/mL) as reference; IC50nov/IC50comp
[2] = tested on: Staphylococcus epidermidis; assay: Tested for in vitro antibacterial activity against Staphylococcus epidermidis 012GO42 oxacillin resistance phenotype; assay type: functional
Staphylococcus aureus [3] = assay: Tested for in vitro antibacterial activity against Staphylococcus aureus 011 HT3 phenotype; assay type: functional
Streptococcus pyogenes = assay: Tested for in vitro antibacterial activity against Streptococcus pyogenes O2A1UC1 phenotype; assay type: functional
Staphylococcus aureus [4] = assay: Tested for in vitro antibacterial activity against Staphylococcus aureus 011 HT1 novobiocin resistance phenotype; assay type: functional
Staphylococcus aureus [5] = assay: Tested for in vitro antibacterial activity against Staphylococcus aureus 011 GO64 ofloxacin oxacillin erythromycin resistance phenotype; assay type: functional

| SMILES | MIC (Enterococcus faecium) [µg/mL] | Ratio (Staphylococcus aureus [1]) | MIC [2] [µg/mL] | MIC (Staphylococcus aureus [3]) [µg/mL] | MIC (Streptococcus pyogenes) [µg/mL] | MIC (Staphylococcus aureus [4]) [µg/mL] | MIC (Staphylococcus aureus [5]) [µg/mL] |
| --- | --- | --- | --- | --- | --- | --- | --- |
| CO[C@@H]1[C@@H](OC(N)=O)[C@@H](O)[C@H](Oc2ccc3c(O)c(NC(=O)c4ccc(O)c(CC=C(C)C)c4)c(=O)oc3c2C)OC1(C)C [NOVOBIOCIN] | 0.6 (≈ 0.979 µM) | 1 | < 0.04 | < 0.04 | 0.3 (≈ 0.49 µM) | 10 (≈ 16.3 µM) |  |
| C#CCONC(=O)O[C@H]1[C@@H](O)[C@H](Oc2ccc3c(=O)c(/C(C)=N/OC)c(O)oc3c2C)O[C@@](C)(C=C)[C@@H]1OC | 1.2 (≈ 2.2 µM) | 2.6 | 0.15 (≈ 0.274 µM) | < 0.04 | 1.2 (≈ 2.2 µM) | 2.5 (≈ 4.57 µM) | 0.3 (≈ 0.549 µM) |
| C#CCONC(=O)O[C@H]1[C@@H](O)[C@H](Oc2ccc3c(O)c(/C(C)=N/OC)c(=O)oc3c2C)OC(CC)(CC)[C@@H]1OC | 0.6 (≈ 1.07 µM) | 4 | < 0.04 | < 0.04 | 0.6 (≈ 1.07 µM) | 2.5 (≈ 4.44 µM) | 0.08 (≈ 0.142 µM) |
